The source of these data is ChEMBL document CHEMBL1155353, “Isatin derivatives, a novel class of transthyretin fibrillogenesis inhibitors” (Bioorg Med Chem Lett, 2009).

Each structure is given as a SMILES string. Activity calls are given as the source filed them. The calls are words filed in the database; no cut-off is given here. Bounds are passed on as bounds.

Assay [1] concerns the target T1, Transthyretin (Homo sapiens, UniProt P02766). Nature of the assay: Displacement of [125I]thyroxin from TTR. Background: Displacement assays read how much labelled ligand stays bound in the presence of the test substance.
Assay [2] deals with T1, Transthyretin. Nature of the assay: Inhibition of TTR mediated fibrillogenesis assessed as acid-induced protein aggregation turbidity after 1.5 hrs by turbidimetric assay relative to control. Details: concentration or dose not given beside the values.
Assay [3] addresses T1, Transthyretin. In words: Inhibition of TTR mediated fibrillogenesis assessed as acid-induced protein aggregation turbidity after 1.5 hrs by turbidimetric assay.
The target in assay [4] is T1, Transthyretin. In words: Binding affinity to TTR at 40 uM by isothermal titration calorimetry. In general terms: ITC needs no label: the signal is the heat of the interaction.
Assay [5] addresses T1, Transthyretin. Nature of the assay: Inhibition of TTR mediated fibrillogenesis assessed as acid-induced protein aggregation turbidity at […] after 1.5 hrs by turbidimetric assay relative to control. Further details: scale not given: the % may be the effect or the level left.

For orientation: IC50 means the concentration that inhibits the measured activity by half. With `CN1C(=O)/C(=N\c2ccc([N+](=O)[O-])cc2)c2ccccc21`, the outcome at Transthyretin [1] was inactive. Besides, on Transthyretin [2], the Activity is 86%. For the same compound, the IC50 at Transthyretin [3] was 6.3 µM.
For the compound `O=C1Nc2ccccc2/C1=N/c1ccc([N+](=O)[O-])cc1`, the outcome on Transthyretin [1] and on Transthyretin [4] was inactive. Besides, the Activity on Transthyretin [2] was found to be 90%. The IC50 at Transthyretin [3] stood at 2.8 µM.
`O=C1Nc2ccccc2C1=O` [ISATIN]: the outcome at Transthyretin [1] was inactive. For the same compound, at Transthyretin [5], the Activity was determined as 24%. Besides, the IC50 at Transthyretin [3] was above 50 µM.
As for `O=C1Nc2ccc(Br)cc2/C1=N/c1ccc(I)cc1`, on Transthyretin [1], the outcome was inactive. Further, the Activity on Transthyretin [2] was 16%. Further, the IC50 on Transthyretin [3] was above 50 µM.
The like results for `CN1C(=O)/C(=N\c2ccc(I)cc2)c2ccccc21` were, in that order, “inactive”, 0% and above 50 µM.
Turning to `O=C1Nc2ccc([N+](=O)[O-])cc2/C1=N/c1ccc(I)cc1`, the result at Transthyretin [1] was inactive. The Activity on Transthyretin [2] and on Transthyretin [5] was 7% each time. Moreover, the IC50 at Transthyretin [3] is above 50 µM.
In the case of `COc1ccc(/N=C2/C(=O)Nc3ccccc32)cc1`, at Transthyretin [3], the IC50 is 8.1 µM.
As for `COc1ccc(/N=C2\C(=O)Nc3ccc([N+](=O)[O-])cc32)cc1`, at Transthyretin [1], the outcome was inactive. Further, at Transthyretin [2], the Activity is 24%. In addition, the IC50 at Transthyretin [3] was above 50 µM.
For `Cc1ccc(/N=C2\C(=O)Nc3ccccc32)cc1`, the outcome at Transthyretin [1] was inactive. Moreover, the Activity on Transthyretin [5] amounted to 14%. In addition, the IC50 on Transthyretin [3] is above 50 µM.
As for `Cc1ccc(/N=C2\C(=O)N(C)c3ccccc32)cc1`, the outcome on Transthyretin [1] was inactive. Also, the Activity on Transthyretin [2] was 8.6%. The IC50 on Transthyretin [3] was determined as 6.3 µM.
The like results for `CN1C(=O)/C(=N\c2ccccc2)c2ccccc21` were, in that order, “inactive”, 77% and 11 µM.
For the compound `N[C@@H](Cc1cc(I)c(Oc2cc(I)c(O)c(I)c2)c(I)c1)C(=O)O`, at Transthyretin [1], the result was inactive. The Activity at Transthyretin [2] worked out at 95%.
In the case of `O=C1Nc2ccc(I)cc2/C1=N/c1ccc(I)cc1`, the outcome at Transthyretin [1] was inactive. The Activity on Transthyretin [2] was 23%. The IC50 on Transthyretin [3] was above 50 µM.
The corresponding values for `COc1ccc(/N=C2\C(=O)Nc3ccc(I)cc32)cc1` are “inactive”, 42% and above 50 µM.
The corresponding values for `COc1ccc(/N=C2\C(=O)Nc3ccc(Br)cc32)cc1` are “inactive”, 48% and above 50 µM.
`O=C1Nc2ccc(I)cc2/C1=N/c1ccccc1`: on Transthyretin [1], the result was inactive. Besides, on Transthyretin [2], the Activity was determined as 1%. At Transthyretin [3], the IC50 is above 50 µM.
Take `COc1ccc(/N=C2\C(=O)Nc3ccc(C)cc32)cc1`: the outcome at Transthyretin [1] was inactive. Further, the Activity on Transthyretin [2] was 32%. Also, the IC50 at Transthyretin [3] is above 50 µM.
The corresponding values for `O=C1Nc2ccccc2/C1=N/c1ccc(I)cc1` are “inactive”, 0% and above 50 µM.
`Cc1ccc2c(c1)/C(=N/c1ccc(I)cc1)C(=O)N2`: the outcome on Transthyretin [1] and on Transthyretin [2] was inactive. The Activity at Transthyretin [5] is 7%. For the same compound, the IC50 at Transthyretin [3] is above 50 µM.
Take `CN1C(=O)C(=O)c2ccccc21`: the outcome at Transthyretin [1] was inactive. Further, the Activity on Transthyretin [2] turned out to be 100%. The IC50 at Transthyretin [3] was found to be 6.3 µM.
The like results for `COc1ccc(/N=C2\C(=O)N(C)c3ccccc32)cc1` were, in that order, “inactive”, 81% and 7.7 µM.
`COc1ccc(/N=C2\C(=O)Nc3ccccc32)cc1`: the result at Transthyretin [1] was inactive. The Activity at Transthyretin [2] stood at 100%.
In the case of `Oc1c(I)cc(I)cc1I` [TRIIODOPHENOL], the result at Transthyretin [1] was inactive. In addition, at Transthyretin [2], the Activity is 80%. Further, the IC50 at Transthyretin [3] came to 3.2 µM.
